Source: ChEMBL document CHEMBL1201862, “PubChem BioAssay data set” (2004)
“And” between values parts separate entries of the source, which are not always exact repeats. Equal values may be shown once.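 Each compound was tested at five concentrations against cells in 96-well plates for 48 hours. GI50 marks 50% less growth.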 The source made the active and inactive calls. No stated cut-off is given here; in the data, active = GI50 up to about 1.1 µM and inactive = higher.

Tests used:
Test in all cases: inhibition of tumour cell growth, NCI panel, 48 h
786-0 = test system: 786-0
A498 = test system: A498
A549 = test system: A549
ACHN = test system: ACHN
CAKI-1 = test system: CAKI-1
CCRF-CEM = test system: CCRF-CEM
COLO 205 = test system: COLO 205
DLD-1 = test system: DLD-1
DMS-114 = test system: DMS-114
DMS-273 = test system: DMS-273
EKVX = test system: EKVX
HCC 2998 = test system: HCC 2998
HCT-116 = test system: HCT-116
HCT-15 = test system: HCT-15
HL-60 = test system: HL-60
HOP-62 = test system: HOP-62
HOP-92 = test system: HOP-92
HT-29 = test system: HT-29
IGROV-1 = test system: IGROV-1
K562 = test system: K562
KM-20L2 = test system: KM-20L2
KM12 = test system: KM12
LOX IMVI = test system: LOX IMVI
LXFL 529 = test system: LXFL 529
M14 = test system: M14
M19-MEL = test system: M19-MEL
MOLT-4 = test system: MOLT-4
Malme-3M = test system: Malme-3M
NCI-H226 = test system: NCI-H226
NCI-H23 = test system: NCI-H23
NCI-H460 = test system: NCI-H460
NCI-H522 = test system: NCI-H522
OVCAR-3 = test system: OVCAR-3
OVCAR-4 = test system: OVCAR-4
OVCAR-5 = test system: OVCAR-5
OVCAR-8 = test system: OVCAR-8
RPMI-8226 = test system: RPMI-8226
RXF 631 = test system: RXF 631
SF-268 = test system: SF-268
SF-295 = test system: SF-295
SF-539 = test system: SF-539
SK-MEL-28 = test system: SK-MEL-28
SK-MEL-2 = test system: SK-MEL-2
SK-MEL-5 = test system: SK-MEL-5
SK-OV-3 = test system: SK-OV-3
SN12C = test system: SN12C
SNB-75 = test system: SNB-75
SNB-78 = test system: SNB-78
SR = test system: SR
SW-620 = test system: SW-620
TK-10 = test system: TK-10
U-251 = test system: U-251
UACC-257 = test system: UACC-257
UACC-62 = test system: UACC-62
UO-31 = test system: UO-31
BT-549 = test system: BT-549
DU-145 = test system: DU-145
HOP-18 = test system: HOP-18
Hs-578T = test system: Hs-578T
MCF7 = test system: MCF7
MDA-MB-231 = test system: MDA-MB-231
MDA-MB-435 = test system: MDA-MB-435
MDA-N = test system: MDA-N
NCI/ADR-RES = test system: NCI/ADR-RES
PC-3 = test system: PC-3
T47D = test system: T47D

Measured: GI50

CN1CCCC2(CCCc3ccccc32)C1 (configuration not stated)
inactive: 786-0 > 100 µM | A498 > 100 µM | A549 > 100 µM | ACHN > 100 µM | CAKI-1 > 100 µM | CCRF-CEM > 100 µM | COLO 205 > 100 µM | DLD-1 > 100 µM | DMS-114 > 100 µM | DMS-273 > 100 µM | EKVX > 100 µM | HCC 2998 > 100 µM | HCT-116 > 100 µM | HL-60 > 100 µM | HOP-62 > 100 µM | HOP-92 69.5 µM | HT-29 > 100 µM | IGROV-1 > 100 µM | K562 > 100 µM | KM-20L2 > 100 µM | KM12 > 100 µM | LOX IMVI > 100 µM | LXFL 529 > 100 µM | M14 > 100 µM | M19-MEL > 100 µM | MOLT-4 > 100 µM | Malme-3M > 100 µM | NCI-H226 > 100 µM | NCI-H23 > 100 µM | NCI-H460 > 100 µM | NCI-H522 > 100 µM | OVCAR-3 > 100 µM | OVCAR-4 > 100 µM | OVCAR-5 > 100 µM | OVCAR-8 > 100 µM | RPMI-8226 > 100 µM | RXF 631 > 100 µM | SF-268 > 100 µM | SF-295 > 100 µM | SF-539 > 100 µM | SK-MEL-28 > 100 µM | SK-MEL-2 > 100 µM | SK-MEL-5 > 100 µM | SK-OV-3 > 100 µM | SN12C > 100 µM | SNB-75 > 100 µM | SNB-78 > 100 µM | SR > 100 µM | SW-620 > 100 µM | TK-10 > 100 µM | U-251 > 100 µM | UACC-257 > 100 µM | UACC-62 > 100 µM | UO-31 80.2 µM
> 100 µM: HCT-15

O=C1C(Br)=C(Br)C(=O)c2ccccc21 [2,3-Dibromo-1,4-naphthoquinone]
17.2 µM and 11.9 µM: HCT-15
inactive: 786-0 18.3 µM and 9.77 µM | A549 13.6 µM | BT-549 4.61 µM | CAKI-1 6.34 µM | DLD-1 15.2 µM and 18.5 µM | DU-145 18.7 µM | HCC 2998 21.7 µM and 19.1 µM | HCT-116 17.9 µM and 12.2 µM | HL-60 2.7 µM | HOP-18 20.1 µM | HOP-62 18.5 µM and 21.5 µM | Hs-578T 4.98 µM | KM-20L2 30.2 µM and 15.1 µM | KM12 19.6 µM and 12.8 µM | M14 15.1 µM and 8.77 µM | MCF7 17.5 µM | MDA-MB-231 5.19 µM | MDA-MB-435 7.98 µM | MDA-N 3.84 µM | NCI/ADR-RES 22.2 µM | OVCAR-4 17.1 µM and 11.1 µM | OVCAR-5 20.5 µM and 10.6 µM | PC-3 17.5 µM | RPMI-8226 3.01 µM | RXF 631 5.94 µM | SK-MEL-2 19.6 µM and 10.4 µM | SK-MEL-5 10.5 µM | SR 2.2 µM | T47D 3.5 µM | TK-10 17.1 µM and 12.7 µM | UACC-62 16.7 µM and 9.71 µM
